{"source": "paper PMC6554712", "about": "(Biochemistry, 2018)", "key": {"FomD": {"target": "FomD (Streptomyces fradiae, UniProt D2SNF7)", "sequence (D2SNF7 whole entry)": "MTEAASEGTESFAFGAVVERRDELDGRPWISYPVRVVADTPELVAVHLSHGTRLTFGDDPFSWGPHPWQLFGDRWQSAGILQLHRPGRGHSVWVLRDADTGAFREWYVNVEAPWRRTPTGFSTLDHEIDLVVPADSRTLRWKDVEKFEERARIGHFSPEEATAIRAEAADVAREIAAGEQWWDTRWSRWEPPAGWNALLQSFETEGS", "experiment": "[…]-NMR hydrolysis assay", "assay_type": "biochemical", "details": "100 μM FomD, 6 mM racemic HPP-CMP"}, "Fom3": {"target": "Fom3 (Streptomyces fradiae, UniProt D2SNF5)", "experiment": "Mössbauer spectroscopy of […]-labelled enzyme", "assay_type": "binding", "details": "4.2 K, 53 mT; binds to the [4Fe-4S] cluster"}, "[1]": {"substrate": "Nc1ccn([C@@H]2O[C@H](COP(=O)(O)OP(=O)(O)CCO)[C@@H](O)[C@H]2O)c(=O)n1", "experiment": "steady-state kinetics, HPP-CMP formation by LC-MS/MS", "assay_type": "biochemical, Streptomyces fradiae", "details": "1 μM Fom3, SAM, Ti(III)citrate as reductant, anaerobic"}}, "data": [{"molecule": "CC(O)CP(=O)(O)OP(=O)(O)OC[C@H]1O[C@@H](n2ccc(N)nc2=O)[C@H](O)[C@@H]1O", "note": "(stereo partly shown) [HPP-CMP]", "values": [{"measurement": "31P-NMR hydrolysis assay", "setting": "FomD", "value": "FomD from S. fradiae was overproduced and purified and then used in a reaction"}]}, {"molecule": "C[S+](CC[C@H](N)C(=O)O)C[C@H]1O[C@@H](n2cnc3c(N)ncnc32)[C@H](O)[C@@H]1O", "note": "(stereo partly shown) [SAM]", "values": [{"measurement": "Mössbauer spectroscopy of 57Fe-labelled enzyme", "setting": "Fom3", "value": "Upon incubating as-isolated Fom3 with SAM"}]}, {"molecule": "Fom3 (Streptomyces fradiae) (protein) MTIGSLGSTEFALHGKPAIRWGDLPQRVGKKASRRYQKVLLLNPSATLFRHDLPRCTYPLGLGYIAAVLEKYDYEVKILDVFAEGYYNAQPVDGDEQFLRYGLSDDDIVKVIKEFAPDVIGISSIFSNQADNVHHLLKLADLVAPEAVTSIGGAHARYFPKACLDDPNLDAVFLGEGEMTFLLWLEHLNGNVREDEVHGIAWRDRDGKIQIKPELPLISSMRPEGPEQGKSSPMLSMAGELDHIPFPAWHHYNMEKYFEIKAYQSPYTVGSRVGQLYTSRGCTAHCTFCTTTHFWGQKLRRRSVDNVVNEVLRLRDEYGIDEFHIQDDNITNDMDHARELFRAFKEVGLPWATPQGTALWRMDEELLDLMAESGAYQVTFAIESGVQRVLKDLIKKPLNLGRTSHLIKYARSLGMHVHGFFIIGMPPMFGNAGESIEEMQASYDYAEESGFSSASFFAASPIVGSELLRECIRQGFVDPEESLYRMTYKQGIINVPGLWDGEEIAELAAKFNRDFNARRDRDYTPQKQWNANQY", "values": [{"measurement": "Km", "setting": "[1]", "value": 74, "unit": "µM"}, {"measurement": "kcat", "setting": "[1]", "value": "~0.013", "unit": "s⁻¹"}]}]}
